US11780849B2, “Imino sulfanone inhibitors of ENPP1” (Volastra Therapeutics, Inc., priority 2020, dated 2023)
Read-outs that look alike come from different tables or passages of the source.

How the values were obtained:
ENPP-1 ECD [1] = biological target: T1, ENPP-1 ECD (Homo sapiens (Human), UniProt P22413); assay: Assay 2: inhibition of ENPP1 hydrolysis of 2′,3′-cGAMP (AMP-Glo, […] enzyme)
Experimental: Assay 2: Compared to the conditions in Assay 1, this assay has a larger dynamic range and ensures the system is under steady-state conditions by reducing the enzyme concentration in the assay.
Test compounds were plated in a 3× dilution scheme in a 384 well plate. […] AMP Detection solution (10 μL) was added to each well, the plate centrifuged and incubated for 60 min.

ENPP-1 ECD [2] = biological target: T1, ENPP-1 ECD; assay: Assay 1: inhibition of ENPP1 hydrolysis of 2′,3′-cGAMP (AMP-Glo, […] enzyme)
Experimental: Assay 1: Test compounds were plated in a 3× dilution scheme in a 384 well plate. […] AMP Detection solution (100 μL) was added to each well, the plate centrifuged and incubated for 60 min.

[3] = biological target: ENPP1 on MDA-MB-231 cells (Homo sapiens (Human), UniProt P22413); assay: Assay 3: inhibition of ENPP1 hydrolysis of AMP p-nitrophenyl ester on MDA-MB-231 cells
Sequence of ENPP1 on MDA-MB-231 cells (P22413 whole entry): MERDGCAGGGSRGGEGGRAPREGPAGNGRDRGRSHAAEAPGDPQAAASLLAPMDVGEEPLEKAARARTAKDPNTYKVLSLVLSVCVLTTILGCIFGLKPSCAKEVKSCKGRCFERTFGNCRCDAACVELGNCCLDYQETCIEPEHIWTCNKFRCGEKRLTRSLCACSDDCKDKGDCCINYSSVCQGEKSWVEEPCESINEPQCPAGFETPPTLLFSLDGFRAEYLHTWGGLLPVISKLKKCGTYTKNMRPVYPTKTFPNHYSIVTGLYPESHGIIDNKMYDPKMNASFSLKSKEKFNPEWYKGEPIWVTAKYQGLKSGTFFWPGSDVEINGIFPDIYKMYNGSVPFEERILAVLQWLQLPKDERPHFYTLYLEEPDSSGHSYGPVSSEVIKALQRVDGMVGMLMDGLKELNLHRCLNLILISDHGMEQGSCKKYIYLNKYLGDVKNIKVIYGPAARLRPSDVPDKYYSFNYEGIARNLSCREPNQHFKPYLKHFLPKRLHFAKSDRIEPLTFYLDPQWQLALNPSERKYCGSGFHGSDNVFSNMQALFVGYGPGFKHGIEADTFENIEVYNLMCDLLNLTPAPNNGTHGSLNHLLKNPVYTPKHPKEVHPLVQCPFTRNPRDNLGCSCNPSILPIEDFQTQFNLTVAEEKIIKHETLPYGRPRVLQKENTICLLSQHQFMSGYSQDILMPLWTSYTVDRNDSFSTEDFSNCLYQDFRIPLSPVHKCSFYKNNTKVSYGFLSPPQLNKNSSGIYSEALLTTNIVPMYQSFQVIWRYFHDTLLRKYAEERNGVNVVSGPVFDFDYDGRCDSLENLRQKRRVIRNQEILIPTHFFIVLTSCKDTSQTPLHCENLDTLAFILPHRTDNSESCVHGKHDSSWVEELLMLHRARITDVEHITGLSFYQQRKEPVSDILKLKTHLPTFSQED

[4] = Assay 2 (KI), ENPP1 hydrolysis of 2′,3′-cGAMP, AMP-Glo, […] ENPP-1, 24 μM cGAMP
[5] = Assay 2 (KI), inhibition of ENPP1 hydrolysis of 2′,3′-cGAMP, no unit in Table 18 (Table 17 legend for this assay uses nM)
[6] = Assay 1 (IC50), ENPP1 hydrolysis of 2′,3′-cGAMP, AMP-Glo
[7] = Assay 1 (IC50), inhibition of ENPP1 hydrolysis of 2′,3′-cGAMP, no unit in Table 18 (Table 17 legend for this assay uses nM)
[8] = IC50 in Assay 1, […] ENPP-1 ECD, 24 μM 2,3-cGAMP, pH 8.0
[9] = read-out: Assay 1 (IC50), ENPP1 hydrolysis of 2′,3′-cGAMP, AMP-Glo
[10] = read-out: Assay 2 (KI), ENPP1 hydrolysis of 2′,3′-cGAMP, AMP-Glo, […] ENPP-1, 24 μM cGAMP
[11] = read-out: Assay 2 (KI), inhibition of ENPP1 hydrolysis of 2′,3′-cGAMP, no unit in Table 18 (Table 17 legend for this assay uses nM)
[12] = read-out: Assay 1 (IC50), inhibition of ENPP1 hydrolysis of 2′,3′-cGAMP, no unit in Table 18 (Table 17 legend for this assay uses nM)
[13] = read-out: Assay 3 (KI, app), apparent KI from IC50 via Cheng/Prusoff, pNP-AMP […], MDA-MB-231 cells, pH 7.4, 37° C., 3 h, unit inferred

T1 sequence (P22413 98-925): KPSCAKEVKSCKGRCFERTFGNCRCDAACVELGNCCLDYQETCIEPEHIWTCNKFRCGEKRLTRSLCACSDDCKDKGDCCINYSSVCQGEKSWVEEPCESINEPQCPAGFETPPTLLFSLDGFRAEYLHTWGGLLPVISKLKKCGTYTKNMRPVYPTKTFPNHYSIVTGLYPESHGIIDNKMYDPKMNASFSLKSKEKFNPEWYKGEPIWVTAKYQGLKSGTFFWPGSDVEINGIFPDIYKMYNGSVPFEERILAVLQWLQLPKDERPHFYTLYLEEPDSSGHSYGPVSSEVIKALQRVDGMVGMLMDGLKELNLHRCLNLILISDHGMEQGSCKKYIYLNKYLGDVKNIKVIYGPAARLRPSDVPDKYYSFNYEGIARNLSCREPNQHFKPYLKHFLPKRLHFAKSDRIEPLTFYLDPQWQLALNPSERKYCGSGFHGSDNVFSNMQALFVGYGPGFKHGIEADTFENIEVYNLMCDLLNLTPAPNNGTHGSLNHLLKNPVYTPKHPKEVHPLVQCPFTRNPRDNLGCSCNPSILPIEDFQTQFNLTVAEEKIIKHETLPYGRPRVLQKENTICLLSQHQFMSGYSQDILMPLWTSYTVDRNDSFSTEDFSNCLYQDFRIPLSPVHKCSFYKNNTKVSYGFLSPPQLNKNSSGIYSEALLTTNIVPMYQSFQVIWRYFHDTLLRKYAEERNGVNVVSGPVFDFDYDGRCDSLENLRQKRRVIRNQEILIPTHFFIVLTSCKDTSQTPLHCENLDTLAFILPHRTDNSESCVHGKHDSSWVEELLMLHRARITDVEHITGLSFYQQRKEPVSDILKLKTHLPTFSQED

Compound	Ki (ENPP-1 ECD [1]; [4]) [nM]	Ki (ENPP-1 ECD [1]; [5]) [nM]	Ki (ENPP-1 ECD [2]) [nM]	IC50 (ENPP-1 ECD [2]; [6]) [nM]	IC50 (ENPP-1 ECD [2]; [7]) [nM]	IC50 (ENPP-1 ECD [2]; [8]) [nM]	Ki [3] [nM]	IC50 (ENPP-1 ECD [2]; [9]) [nM]	Ki (ENPP-1 ECD [1]; [10]) [nM]	Ki (ENPP-1 ECD [1]; [11]) [nM]	IC50 (ENPP-1 ECD [2]; [12]) [nM]	Ki [3, 13] [nM]
COc1cc2nccc(Oc3ccc(S(C)(=N)=O)cc3)c2cc1OC (stereo not drawn) [Compound 1, (4-((6,7-dimethoxyquinolin-4-yl)oxy)phenyl)(imino)(methyl)-λ^6-sulfanone]	3 to 300	3.5	5.1	10 to 1000	17	17	61					
COc1cc2nccc(Oc3ccc([S@@](C)(=N)=O)cc3)c2cc1OC [Compound 1S, (S)-(4-((6,7-dimethoxyquinolin-4-yl)oxy)phenyl)(imino)(methyl)-λ^6-sulfanone]	< 3	0.87		10 to 1000	13		45					
COc1cc2ncnc(N3CCC(CCS(C)(=N)=O)CC3)c2cc1OC (stereo not drawn) [Compound 8, (2-(1-(6,7-dimethoxyquinazolin-4-yl)piperidin-4-yl)ethyl)(imino)(methyl)-λ^6-sulfanone]	< 3	0.69			4.1	6.9	27	< 10				
COc1ccc2c(Oc3ccc(S(C)(=N)=O)cc3F)ccnc2c1 (stereo not drawn) [Compound 12, (3-fluoro-4-((7-methoxyquinolin-4-yl)oxy)phenyl)(imino)(methyl)-λ^6-sulfanone]	3 to 300	8.6		10 to 1000	30		190					
COc1cc2ncnc(-c3ccc4c(c3)CN(S(C)(=N)=O)CC4)c2cc1OC (stereo not drawn) [Compound 37, 6,7-dimethoxy-4-(2-(S-methylsulfonimidoyl)-1,2,3,4-tetrahydroisoquinolin-7-yl)quinazoline]	< 3	0.41			2.9		28	< 10				
COc1cc2ncc(C#N)c(N3CCC(CCS(C)(=N)=O)CC3)c2cc1F (stereo not drawn) [Compound 43, 6-fluoro-7-methoxy-4-(4-(2-(S-methylsulfonimidoyl)ethyl)piperidin-1-yl)quinoline-3-carbonitrile]	< 3	0.49			3.9		29	< 10				
COc1cc2ncc(C#N)c(Oc3ccc(S(C)(=N)=O)cc3)c2cc1F (stereo not drawn) [Compound 44, 6-fluoro-7-methoxy-4-(4-(S-methylsulfonimidoyl)phenoxy)quinoline-3-carbonitrile]	< 3	1.6		10 to 1000	15		110					
COc1cc2ncc(C#N)c(Oc3ccc([S@@](C)(=N)=O)cc3)c2cc1F [Compound 44a]								10 to 1000	< 3	1	11	110
COc1ccc2c(-c3ccc4c(c3)CN(S(C)(=N)=O)CC4)ccnc2c1 (stereo not drawn) [Compound 52, 7-methoxy-4-(2-(S-methylsulfonimidoyl)-1,2,3,4-tetrahydroisoquinolin-7-yl)quinoline]	3 to 300	6.3		10 to 1000	35		280					
COc1ccc2c(N3CCC4(CC3)CN(S(C)(=N)=O)C4)ccnc2c1 (stereo not drawn) [Compound 53, 7-methoxy-4-(2-(S-methylsulfonimidoyl)-2,7-diazaspiro[3.5]nonan-7-yl)quinoline]	3 to 300	4.6		10 to 1000	44		160					
COc1cc2ncnc(N3CCC4(CC3)CCN(S(C)(=N)=O)C4)c2cc1OC (stereo not drawn) [Compound 54, [8-(6,7-dimethoxyquinazolin-4-yl)-2,8-diazaspiro[4.5]decan-2-yl](imino)methyl-λ^6-sulfanone]	< 3	0.014			0.71		0.88					
COc1cc2ncnc(N3CCC4(CC3)CCN([S@@](C)(=N)=O)C4)c2cc1OC [Compound 54a]								< 10	< 3	0.0075	0.34	0.32
COc1cc2ncnc(N3CCC4(CC3)CCN([S@](C)(=N)=O)C4)c2cc1OC [Compound 54b]								< 10	< 3	1.3	7.6	130
COc1ccc2c(N3CCC4(CC3)CCN(S(C)(=N)=O)C4)ccnc2c1 (stereo not drawn) [Compound 55, 8-(7-methoxyquinolin-4-yl)-2-(S-methylsulfonimidoyl)-2,8-diazaspiro[4.5]decane]	< 3	0.14			2		25	< 10				
COc1ccc2c(N3CCC4(CC3)CCN([S@](C)(=N)=O)C4)ccnc2c1 [Compound 55a]								< 10	< 3	0.09	0.76	8.7
COc1cccc2c(N3CCC(CCS(C)(=N)=O)CC3)c(C#N)cnc12 (stereo not drawn) [Compound 57, 8-methoxy-4-(4-(2-(S-methylsulfonimidoyl)ethyl)piperidin-1-yl)quinoline-3-carbonitrile]	3 to 300	5.3		10 to 1000	31		120					
COc1ccc2c(Oc3ccc(S(=N)(=O)C4CC4)cc3)ccnc2c1 (stereo not drawn) [Compound 60, cyclopropyl(imino)(4-((7-methoxyquinolin-4-yl)oxy)phenyl)-λ^6-sulfanone]	< 3	0.34			2.8		23	< 10				
COc1ccc2c(Oc3ccc([S@@](=N)(=O)C4CC4)cc3)ccnc2c1 [Compound 60a]								< 10	< 3	0.099	1.3	11
COc1cccc2c(N3CCC(CCS(C)(=N)=O)CC3)ncnc12 (stereo not drawn) [Compound 72, imino({2-[1-(8-methoxyquinazolin-4-yl)piperidin-4-yl]ethyl})methyl-λ^6-sulfanone]	3 to 300	18		10 to 1000	120		430					
COc1ccc2c(OCc3ccc(S(C)(=N)=O)cc3)ccnc2c1 (stereo not drawn) [Compound 75, imino(4-(((7-methoxyquinolin-4-yl)oxy)methyl)phenyl)(methyl)-λ^6-sulfanone]	< 3	0.49			4.4		31	< 10				
COc1ccc2c(OCc3ccc([S@@](C)(=N)=O)cc3)ccnc2c1 [Compound 75a]								< 10	< 3	0.38	3	22
COc1ccc2c(Oc3ccc(S(C)(=N)=O)cc3)ccnc2c1 (stereo not drawn) [Compound 80, imino(4-((7-methoxyquinolin-4-yl)oxy)phenyl)(methyl)-λ^6-sulfanone]	< 3	1.1			6.2	1.4	29	< 10				
COc1ccc2c(Oc3ccc([S@@](C)(=N)=O)cc3)ccnc2c1 [Compound 80a]								< 10	< 3	0.26	2.2	13
COc1cc2ncnc(N3CCC(CNS(C)(=N)=O)CC3)c2cc1OC (stereo not drawn) [Compound 94, N-((1-(6,7-dimethoxyquinazolin-4-yl)piperidin-4-yl)methyl)methanesulfonimidamide]	< 3	1.3			6.6		83	< 10				
